Reference: publication PMC467046, “Computational and spectroscopic insight into the binding of citral with human transferrin: Targeting neurodegenerative diseases” (Heliyon, 2024)

Target: T1, human transferrin (htf) (Homo sapiens, UniProt P02787)
T1 construct: gene TF; single-chain glycoprotein of 679 amino acids (mature)
Experiment: intrinsic fluorescence quenching, modified Stern-Volmer plot
Format: binding
Settings: 298 K; 4 uM htf, 0-8 uM citral; excitation 280 nm; double-log
Excerpt: intrinsic fluorescence quenching, modified Stern-Volmer plot on human transferrin (htf)

T1 sequence (P02787 20-698): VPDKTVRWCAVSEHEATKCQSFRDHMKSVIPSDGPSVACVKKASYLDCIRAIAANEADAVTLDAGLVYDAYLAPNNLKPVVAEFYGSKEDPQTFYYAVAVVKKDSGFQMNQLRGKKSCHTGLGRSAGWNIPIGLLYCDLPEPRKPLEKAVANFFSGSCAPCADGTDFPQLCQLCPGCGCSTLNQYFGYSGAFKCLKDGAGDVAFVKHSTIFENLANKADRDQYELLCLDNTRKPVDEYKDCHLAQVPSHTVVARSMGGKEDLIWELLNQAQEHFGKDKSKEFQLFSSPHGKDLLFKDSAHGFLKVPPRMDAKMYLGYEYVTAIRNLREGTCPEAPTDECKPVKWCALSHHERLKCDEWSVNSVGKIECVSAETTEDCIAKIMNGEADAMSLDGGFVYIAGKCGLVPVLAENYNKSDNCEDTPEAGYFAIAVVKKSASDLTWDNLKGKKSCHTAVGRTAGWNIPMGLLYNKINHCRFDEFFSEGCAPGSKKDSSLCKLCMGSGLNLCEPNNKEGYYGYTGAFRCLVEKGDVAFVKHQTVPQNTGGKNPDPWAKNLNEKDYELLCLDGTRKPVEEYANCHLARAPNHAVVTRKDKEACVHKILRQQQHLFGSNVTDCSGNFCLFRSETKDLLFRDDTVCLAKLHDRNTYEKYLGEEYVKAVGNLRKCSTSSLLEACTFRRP

CC(C)=CCCC(C)=CC=O [citral]
K 10^6M^-1: 0.82 10^6 M^-1
